Measurements reported in patent US11845774B2, “Sterol derivatives and preparation method and uses thereof” (BEIJING PEKING UNIVERSITY WBL BIOTECH CO., LTD., priority 2011, dated 2023).

What was measured:
[1] = tested on: human mononuclear lymphoma cell THP1; assay: MTT test of inhibiting cancer cells, THP1; type: cell-based; conditions: THP-1, 72 hours, FIG. 6, read-out: IC50 value, growth of THP1
Method: (§1) Cancer cells of exponential growth phase were inoculated on 96-well plate, 2×10^4 cells/well, added with drug until final drug concentrations were: 500, 250, 125, 62.5, 31.25, 15.625 and 7.8125 μg/mL, cultured at 37° C. in 5% CO2 cell culture incubator for 72 hours, then added with MTT, 10 μL/well, incubated in dark at 37° C. for 4 hours, culture medium was removed, 150 μL of DMSO or acidified isopropanol was added, vibrated for 5 minutes, and then OD values were measured under wavelength of 570 nm. This was repeated for 3 times, and a blank control was set. These cell strains used the same culture medium, i.e., RPMI1640 culture medium containing 10% fetal bovine serum and 1% double antibody (penicillin and steptomycin).
(§2) Calculation Formula: Cell survival rate=(OD value of test group/OD value of control group)×100%.

[2] = tested on: mice sarcoma cell line S180; assay: MTT test of inhibiting cancer cells, S180; type: cell-based; conditions: 72 hours, FIG. 4, concentration-effect relationship
Method: as §1, §2

[3] = molecular target: T1, HMG-CoA reductase (rat liver microsomes) (Rattus norvegicus, UniProt P51639); assay: Test of activity of inhibiting HMG-CoA reductase (rate of decline of OD340); type: biochemical; conditions: for Slope (rate of decline of OD340): blank control slope 16.0
T1 construct: taking out liver of male rat, washing with KESD buffer solution; from tissue; host or cells: liver of male rat (microsomal fraction, glycerol/37 °C treatment, 35-50% ammonium sulfate fraction)
T1 sequence (P51639 1-887): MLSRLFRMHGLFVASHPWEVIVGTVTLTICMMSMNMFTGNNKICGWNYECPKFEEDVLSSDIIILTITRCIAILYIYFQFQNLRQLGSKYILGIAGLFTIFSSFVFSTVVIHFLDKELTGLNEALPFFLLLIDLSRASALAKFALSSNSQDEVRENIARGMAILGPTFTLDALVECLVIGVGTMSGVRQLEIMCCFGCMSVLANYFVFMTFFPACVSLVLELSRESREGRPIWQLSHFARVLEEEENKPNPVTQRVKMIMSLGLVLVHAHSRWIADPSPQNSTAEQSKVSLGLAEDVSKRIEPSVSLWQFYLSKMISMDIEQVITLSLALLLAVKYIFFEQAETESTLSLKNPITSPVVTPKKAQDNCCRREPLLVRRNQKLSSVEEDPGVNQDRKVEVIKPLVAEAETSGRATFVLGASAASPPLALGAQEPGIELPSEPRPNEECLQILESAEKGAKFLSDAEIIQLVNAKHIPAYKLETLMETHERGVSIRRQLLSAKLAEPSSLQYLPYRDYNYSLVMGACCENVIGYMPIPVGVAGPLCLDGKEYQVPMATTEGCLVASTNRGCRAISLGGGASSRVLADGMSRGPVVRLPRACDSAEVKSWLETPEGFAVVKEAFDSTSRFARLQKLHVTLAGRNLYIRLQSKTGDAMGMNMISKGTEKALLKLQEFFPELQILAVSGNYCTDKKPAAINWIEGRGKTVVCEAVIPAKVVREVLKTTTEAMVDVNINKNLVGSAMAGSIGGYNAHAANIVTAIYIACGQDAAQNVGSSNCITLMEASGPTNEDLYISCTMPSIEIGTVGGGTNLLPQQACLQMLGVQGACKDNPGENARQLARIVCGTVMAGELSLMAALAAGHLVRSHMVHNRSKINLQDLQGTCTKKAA
Method: Rat liver microsomes (HMG-CoA reductase), could be commercially available or prepared by the following preparation method: taking out liver of male rat, washing with KESD buffer solution, centrifuging under 1200 g for 15 minutes, collecting supernatant, then centrifuging under 105,000 g twice, 90 minutes for each time, and collecting centrifugation deposit. The centrifugation deposit was added with 8.3% of glycerol, heated with 37° C. bath for 1 hour. The crude product of rat liver microsomes was purified with saturated ammonium sulfate, and 35-50% of purified fraction was collected. The purified fraction obtained could be stored in −80° C. refrigerator.
Compound of Formula II was dissolved in 75% ethanol solution, with initial concentration of 8.0 mg/mL, and diluted in gradient manner, to reach 4.0 mg/mL, 2.0 mg/mL, 1.0 mg/mL; lovastatin was used as positive control, dissolved with 75% ethanol solution to reach concentration of 2.0 mg/mL; in the test system, total volume was 250 μL, concentrations of ingredients were separately: potassium chloride 200 mM, potassium dihydrogen phosphate 160 mM, ethylenediamine tetraacetic acid 4 mM, dithiothreitol 10 mM, […] and 3-hydroxy-3-methylglutary coenzyme A as two substrates separately had concentrations of: 200 μM and 50 μM, pH6.8, 30 μL of enzyme was added, 4 test groups were separately added with 10 μL of new compound solutions with different concentrations, the positive control group was added with 10 μL of lovastatin solution, the blank control group was added with 10 μL of 75% ethanol solution, and dynamitic changes of OD340 were detected with Versamax ELISA at 37° C. condition. The rate of decline of OD340 (expressed in slope value) as detected within 5 minutes was used to evaluate the activity of HMG-CoA reductase, and then to evaluate the activity of enzyme inhibitor and the results were shown in Table 2.

[4] = tested on: mice lymphoma cell YAC-1; assay: MTT test of inhibiting cancer cells, YAC-1; type: cell-based; conditions: Mus musculus, 72 hours, FIG. 5, read-out: IC50 value, growth of YAC-1
Method: as §1, §2

[5] = tested on: human colon cancer cell strain HCT116; assay: MTT test of inhibiting cancer cells, HCT116; type: cell-based; conditions: 72 hours, FIG. 1, concentration-effect relationship
Method: as §1, §2

[6] = final concentration in system 40 μg/mL
[7] = final concentration in system 80 μg/mL
[8] = final concentration in system 160 μg/mL
[9] = final concentration in system 320 μg/mL

Compound: C[C@@H](C(O)C1OC2C[C@H]3C4=CC=C5CC(O)CC[C@]5(C)[C@H]4CC[C@]3(C)[C@H]2[C@@]1(C)O)C(C)(C)O (stereo partly shown) [Compound of Formula II, 16,22-epoxy-ergosta-5,7-dien-3,20,23,25-tetraol]
- IC50 [1]: ~250 mg/L
- inhibition effect on growth of S180 (in words) [2]: inhibition effect
- Inhibition rate [3, 6]: 14.4%
- Slope (rate of decline of OD340) [3, 6]: 13.7
- Inhibition rate [3, 7]: 29.4%
- Slope (rate of decline of OD340) [3, 7]: 11.3
- Inhibition rate [3, 8]: 45.6%
- Slope (rate of decline of OD340) [3, 8]: 8.7
- Inhibition rate [3, 9]: 53.1%
- Slope (rate of decline of OD340) [3, 9]: 7.5
- IC50 ([3]; read-out: IC50 value, inhibition of activity of HMG-CoA reductase (converted)): ~543 µM
- IC50 [4]: ~62.5 mg/L
- inhibition effect on growth of HCT116 (in words) [5]: inhibition effect
